Test results from US11667784B2, “Copolymers including cinchona alkaloid components and one or more acrylamide or acrylate containing components, complexes containing the same, and methods of using the” (REGENTS OF THE UNIVERSITY OF MINNESOTA, priority 2017, dated 2023).

Tests used:
[1] = cited from earlier work
plasmid DNA = test: DNA binding by gel electrophoresis (gel shift assay); settings: plasmid DNA 4.7 kb, equivalent molar ratios to HEA-quinine copolymer
Experimental: DNA Binding Studies by Gel Electrophoresis. After the 1 hour incubation period, the polyplex solutions of all N/P ratios (10 μL) were each mixed with a 30% glycerol solution in water (2 μL). The solutions were loaded into 0.6% agarose gel containing ethidium bromide (6 μL/100 mL TAE buffer) and run at 60 V for 60 minutes. The gel was visualized under UV transilluminator (λ=366 nm).
The first step in this process is to mix the polymer and pDNA together to form the polyplex. […] Once combined, the solution is left to incubate at room temperature for 1 hour. Polyplexes are formed with varying concentrations of polymer to DNA which are expressed by their N/P ratio. The N/P ratio expresses the molar ratio of cationic amine groups on the polymer (N) over the number of anionic phosphate groups of the DNA backbone (P). […]
Upon a slow addition of an aqueous polymer solution to an aqueous DNA solution (0.02 μg/μL) at a 1:1 v/v ratio, the polymer and DNA self-assemble to form polyplexes. The target concentration of the polymer in the polyplex solution was determined by the target N/P ratio which is the molar ratio of cationic amine groups on the polymer (N) to anionic phosphate groups of the DNA backbone (P). […]

HeLa cells = format: cell-based, human
Source text: Transfection with the acrylate copolymer poly(HEA-co-acrylate), however, provided more promising results. […] Transfection studies with the HEA copolymer will continue at higher N/P ratios in hope of achieving transfection efficiency similar to that of PEI while maintaining limited toxicity.

Compound: C=C(C)C(=O)NCCN [AEMA, N-(2-aminoethyl) methacrylamide]
- pKa of basic amine ([1]; basic tertiary amine of chloroquine and quinine, amine of AEMA): 9.3

Compound: C=C[C@H]1C[N@@]2CC[C@H]1C[C@H]2[C@H](O)c1ccnc2ccc(OC)cc12 [quinine]
- ability to bind DNA in gel shift assay (plasmid DNA): inability
- pKa of quinoline nitrogen ([1]; 4-aminoquinoline nitrogen of chloroquine vs quinoline nitrogen of quinine): 5.2

Compound: poly(HEA-co-quinine) [HEA copolymer]
- toxicity (qualitative inspection) (HeLa cells): much less toxic
